These results are taken from PubChem BioAssay (NCI).

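All cell lines were grown in 96-well plates and treated with compound for 48 hours. Definition used: TGI = concentration required for complete inhibition of growth.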

Common to all, as to assay: NCI tumour cell line growth inhibition, 48 h
Experiment [1] has as its system OVCAR-4 ovarian.
Experiment [2] concerns HCC-2998 colon.
Experiment [3] deals with MDA-MB-435.
The test system of experiment [4] is MALME-3M melanoma.
Experiment [5] deals with SF-539 CNS.
Experiment [6] relates to MOLT-4 leukemia.
For experiment [7], the system named is ACHN renal.
In experiment [8] the test system is DU-145 prostate.
Experiment [9] relates to A549 NSCLC.
Experiment [10] deals with RPMI-8226 leukemia.

For the molecule `CN(CCNC(=O)c1nn(C)c2c1Cc1ccccc1-2)CCNC(=O)c1nn(C)c2c1Cc1ccccc1-2`, the TGI amounted to 53.1 µM in [1]; 25.5 µM in experiment [2]; 31.1 µM in [3]; 29.8 µM in [4]; 27.6 µM in experiment [5]; 31.2 µM in experiment [6]. Moreover, the results for the TGI in experiment [7], in [8] and in [9] were 28.4 µM, 41.5 µM and 33.3 µM, respectively.

Consider `CC(=O)CC(O)(C(F)(F)Cl)C(F)(Cl)Cl` (centres undefined), for which the TGI in experiment [1], in experiment [2], in experiment [3], in experiment [4], in experiment [5] and in experiment [7] was over 10 µM each time. The TGI in experiment [8] and in experiment [9] was over 10 µM each time.

For the molecule `CCN(CC)C(=O)N[C@@H](CC(C)C)C(=O)NC`, the TGI in [1], in experiment [2], in experiment [3], in experiment [4], in [10] and in experiment [6] was over 100 µM throughout. For the same molecule, the TGI in experiment [7], in experiment [8] and in [9] was over 100 µM in each case.

`CCCCCCCC(=O)NC(C)(C)C(=O)NCC(=O)NC(CC(C)C)C(=O)NC(C)(C)C(=O)NCC(=O)NCC(=O)NC(CC(C)C)C(=O)NC(C)(C)C(=O)NCC(=O)NC(C(=O)NC(CO)CC(C)C)C(C)CC` (centres undefined): the TGI was found to be 7.9 µM in [1]; 7.71 µM in experiment [2]; 8.24 µM in experiment [3]; 8.93 µM in experiment [4]; 4.27 µM in experiment [10]; 9.43 µM in experiment [6]. In addition, the TGI worked out at 8.75 µM in experiment [7], 9.53 µM in [8] and 8.01 µM in experiment [9].

Turning to `C/C(=C\COP(=O)(O)OP(=O)(O)O)CC/C=C(\C)CNc1c(F)c(F)c(F)c(F)c1F`, the TGI in [1], in experiment [2], in experiment [3], in [4], in experiment [5] and in [6] was over 100 µM throughout. Also, the TGI in [7], in experiment [8] and in [9] was over 100 µM in each case.

Regarding `O=[N+]([O-])c1ccc(CSC2=C(c3ccc(Cl)cc3)S/C(=C3\SC(SCc4ccc([N+](=O)[O-])cc4)=C(c4ccc(Cl)cc4)S3)S2)cc1`, the TGI in experiment [1], in experiment [2], in experiment [3], in [4], in [5] and in experiment [6] was over 100 µM throughout. For the same molecule, the TGI in experiment [7], in experiment [8] and in experiment [9] was over 100 µM throughout.

As to `CC(=O)N(C(=O)CC(=O)N1N=C(C)C(N=Nc2cccc([N+](=O)[O-])c2)C1=O)c1ccc(Cl)cc1` (centres undefined), the TGI in experiment [1], in [2], in experiment [3], in experiment [4], in [10] and in [5] was over 10 µM in each case. Further, the TGI in experiment [7], in experiment [8] and in [9] was over 10 µM each time.

For the molecule `CC[C@@]1(O)C(=O)OCc2c1cc1n(c2=O)Cc2c-1nc1ccc(N)cc1c2CC[Si](C)(C)C`, the TGI in experiment [1] is 5.94 µM; in experiment [2] it was 0.103 µM; in experiment [3] it was 4.54 µM; in experiment [4] it was 0.31 µM; in [10], 0.0841 µM; in [5], under 0.01 µM. The results for the TGI in experiment [6], in [8] and in experiment [9] were under 0.01 µM, 1.68 µM and 0.177 µM, respectively.

Take `Cc1ccc([N+](=O)[O-])cc1S(=O)(=O)Nc1ccc(C2=NN(S(=O)(=O)c3cc([N+](=O)[O-])ccc3C)C(c3ccccc3O)C2)cc1` (centres undefined): the TGI in [1], in [2], in [3], in experiment [4], in experiment [10] and in [6] was over 100 µM throughout. The TGI in [7], in [8] and in experiment [9] was over 100 µM throughout.

Take `CC(C)C(Sc1nc(N)nc2nc[nH]c12)C(=O)O` (centres undefined): the TGI in experiment [1], in experiment [2], in [3], in [4], in experiment [10] and in experiment [7] was over 100 µM throughout. The TGI in experiment [8] and in experiment [9] was over 100 µM in each case.

On to `NC1=Nc2ncccc2C(=O)NN1`, for which the TGI in experiment [2], in experiment [3], in [4], in [10], in experiment [5] and in experiment [6] was over 10 µM in each case. Further, the TGI in experiment [7], in experiment [8] and in experiment [9] was over 10 µM each time.

As to `CC(C)=CC(=O)c1[nH]c2ccccc2c1CC(=O)NCCc1cnc[nH]1`, the TGI in experiment [1], in [2], in [3], in experiment [4], in experiment [5] and in experiment [6] was over 100 µM throughout. For the same molecule, the TGI in [7], in [8] and in [9] was over 100 µM in each case.

`COc1cccc(C2c3cc4c(cc3OC(NNS(=O)(=O)c3ccc(C)cc3)C2C)OCO4)c1O` (centres undefined): the TGI in [2] is over 100 µM; in experiment [3] it was 92.4 µM; in experiment [4] it was 64.4 µM; in experiment [10], 32.4 µM; in experiment [5], 51.8 µM; in [6], 52.1 µM. In addition, the TGI in [7], in [8] and in experiment [9] was over 100 µM throughout.

On to `COc1cc2c(cc1C)NC(=O)/C2=C/c1c(Cl)[nH]c2ccccc12`, for which the TGI in experiment [2] was 15.4 µM; in experiment [3], 4.13 µM; in experiment [4] it was 15.3 µM; in experiment [10], over 100 µM; in [5], 4.15 µM; in [6], 31.3 µM. The TGI in experiment [7] was 22.4 µM; in [8], 27 µM; in [9], over 100 µM.
